Results published in patent publication US20150119378A1, “AZETIDINYLOXY-, PYRROLIDINYLOXY-, AND PIPERIDINYLOXY-SUBSTITUTED METANICOTINES AS NEURONAL NICOTINIC ACETYLCHOLINE RECEPTOR LIGANDS” (priority 2013, published 2015).
Read-outs that look alike come from different tables or passages of the source.

What was measured:
Human α4β2 = biological target: T1, Human α4β2 (Homo sapiens, UniProt P17787+P43681); assay: Competition binding to receptors in membrane preparations, human α4β2 ([3H]-nicotine)
T1 construct: expressed in transfected cells; obtained from Dr. Ron Lukas, Barrow Neurological Institute
Protocol: (§1) SH-EP1/human α4β2 (Eaton et al., 2003), SH-EP1/human α4β4 (Gentry et al., 2003), SH-EP1/α6β3β4α5 (Grinevich et al., 2005), TE671/RD and SH-SY5Y cell lines (obtained from Dr. Ron Lukas, Barrow Neurological Institute) were maintained in proliferative growth phase in Dulbecco's modified Eagle's medium (Gibco/BRL) with 10% horse serum (Gibco BRL), 5% fetal bovine serum (HyClone, Logan Utah), 1 mM sodium pyruvate, 4 mM L-glutamine. For maintenance of stable transfectants, the α4β2 and α4β4 cell media was supplemented with 0.25 mg/mL zeocin and 0.13 mg/mL hygromycin B. Selection was maintained for the α6β3β4α5 cells with 0.25 mg/mL of zeocin, 0.13 mg/mL of hygromycin B, 0.4 mg/mL of geneticin, and 0.2 mg/mL of blasticidin. HEK/human α7/RIC3 cells (obtained from J. Lindstrom, U. Pennsylvania) were maintained in proliferative growth phase in Dulbecco's modified Eagle's medium (Gibco/BRL) with 10% fetal bovine serum (HyClone, Logan Utah), 1 mM sodium pyruvate, 4 mM L-glutamine, 0.4 mg/mL geneticin; 0.2 mg/ml hygromycin B.
(§2) Cells were harvested in ice-cold PBS, pH 7.4, then homogenized with a polytron (Brinkmann Instruments, Westbury, N.Y.). Homongenates were centrifuged at 40,000 g for 20 minutes (4° C.). The pellet was resuspended in PBS and protein concentration determined using the Pierce BCA Protein Assay kit (Pierce Biotechnology, Rockford, Ill.).
(§3) Binding to nicotinic receptors was assayed on membranes using standard methods adapted from published procedures (Lippiello and Fernandes, 1986; Davies et al., 1999). In brief, membranes were reconstituted from frozen stocks (approximately 0.2 mg protein) and incubated for 2 h on ice in […] assay buffer (PBS) in the presence of competitor compound (0.001 nM to […]) and radioligand. [^3H]-nicotine (L-(−)-[N-methyl-3H]-nicotine, 69.5 Ci/mmol, Perkin-Elmer Life Sciences) was used for human α4β2 binding studies. [^3H]-epibatidine (52 Ci/mmol, Perkin-Elmer Life Sciences) was used for binding studies at the other receptor subtypes. Incubation was terminated by rapid filtration on a multimanifold tissue harvester (Brandel, Gaithersburg, Md.) using GF/B filters presoaked in 0.33% polyethyleneimine (w/v) to reduce non-specific binding. Filters were washed 3 times and the radioactivity retained was determined by liquid scintillation counting.
(§4) Binding data were expressed as percent total control binding. Replicates for each point were averaged and plotted against the log of drug concentration. The IC50 (concentration of the compound that produces 50% inhibition of binding) was determined by least squares non-linear regression using GraphPad Prism software (GraphPAD, San Diego, Calif.). Ki was calculated using the Cheng-Prusoff equation (Cheng and Prusoff, 1973).

Rat Ganglion = Rat Ganglion (Rattus norvegicus, UniProt P04757+P12392); assay: Competition binding to receptors in membrane preparations, rat ganglion subtype ([3H]-epibatidine)
Protocol: as §3, §4

Human Ganglion = biological target: T2, Human Ganglion (Homo sapiens, UniProt P30926+P32297); assay: Competition binding to receptors in membrane preparations, human ganglion subtype ([3H]-epibatidine)
T2 construct: endogenous in cells
Protocol: as §1, §2, §3, §4

Human α7 nAChR = biological target: T3, Human α7 nAChR (Homo sapiens, UniProt P36544); assay: Competition binding to receptors in membrane preparations, human α7 ([3H]-epibatidine)
T3 construct: expressed in transfected cells; host or cells: HEK cells co-expressing RIC3 (from J. Lindstrom, U. Pennsylvania)
Protocol: as §1, §2, §3, §4

Row | SMILES | Ki (Human α4β2; read-out: Human α4β2 Ki) [µM] | Ki (Rat Ganglion) [µM] | Ki (Human Ganglion) [µM] | Ki (Human Ganglion; read-out: Human Ganglion Ki) [µM] | Ki (Human α7 nAChR) [µM] | Ki (Human α4β2) [µM]
1 | CN[C@@H](C)C/C=C/c1cncc(O[C@H]2CCN(C(C)=O)C2)c1 | 0.012 | – | – | – | – | –
2 | CCC(=O)N1CC[C@H](Oc2cncc(/C=C/C[C@H](C)NC)c2)C1 | 0.0097 | 40 | 43 | – | – | –
3 | CN[C@@H](C)C/C=C/c1cncc(O[C@H]2CCN(C(=O)C3CCOCC3)C2)c1 | 0.013 | 51 | 100 | – | – | –
4 | CN[C@@H](C)C/C=C/c1cncc(O[C@@H]2CCN(C(C)=O)C2)c1 | 0.0026 | 24 | 41 | – | – | –
5 | CCC(=O)N1CC[C@@H](Oc2cncc(/C=C/C[C@H](C)NC)c2)C1 | 0.0019 | 88 | 19 | – | – | –
6 | CN[C@@H](C)C/C=C/c1cncc(O[C@@H]2CCN(C(=O)C3CCOCC3)C2)c1 | 0.0044 | – | 44 | – | – | –
7 | CCC(=O)N1CC(Oc2cncc(/C=C/C[C@H](C)NC)c2)C1 | 0.0022 | – | – | – | – | –
8 | CN[C@@H](C)C/C=C/c1cncc(OC2CN(C(=O)C3CCOCC3)C2)c1 | 0.0048 | – | – | – | – | –
9 | CN[C@@H](C)C/C=C/c1cncc(O[C@H]2CCN(C(=O)C3CC3)C2)c1 | 0.014 | – | 20 | – | – | –
10 | CN[C@@H](C)C/C=C/c1cncc(O[C@H]2CCN(C(=O)COC)C2)c1 | 0.0044 | – | 21 | – | – | –
11 | CN[C@@H](C)C/C=C/c1cncc(O[C@H]2CCN(C(=O)c3ccco3)C2)c1 | 0.0012 | – | 72 | – | – | –
12 | CCCOC(=O)N1CC[C@H](Oc2cncc(/C=C/C[C@H](C)NC)c2)C1 | 0.0077 | – | – | 25 | – | –
13 | CN[C@@H](C)C/C=C/c1cncc(O[C@H]2CCN(C(=O)OCCOC)C2)c1 | 0.053 | – | – | 270 | – | –
14 | CCNC(=O)N1CC[C@H](Oc2cncc(/C=C/C[C@H](C)NC)c2)C1 | 0.061 | – | 250 | – | – | –
15 | CN[C@@H](C)C/C=C/c1cncc(O[C@@H]2CCN(C(=O)C3CC3)C2)c1 | 0.0051 | – | 83 | – | – | –
16 | CN[C@@H](C)C/C=C/c1cncc(O[C@@H]2CCN(C(=O)COC)C2)c1 | 0.0091 | – | 55 | – | – | –
17 | CN[C@@H](C)C/C=C/c1cncc(O[C@@H]2CCN(C(=O)c3ccco3)C2)c1 | 0.0047 | – | 50 | – | – | –
18 | CCCOC(=O)N1CC[C@@H](Oc2cncc(/C=C/C[C@H](C)NC)c2)C1 | 0.0051 | – | – | 37 | – | –
19 | CN[C@@H](C)C/C=C/c1cncc(O[C@@H]2CCN(C(=O)OCCOC)C2)c1 | 0.0066 | – | – | 48 | – | –
20 | CCNC(=O)N1CC[C@@H](Oc2cncc(/C=C/C[C@H](C)NC)c2)C1 | 0.0099 | – | 140 | – | – | –
21 | CN[C@@H](C)C/C=C/c1cncc(OC2CN(C(=O)COC)C2)c1 | 0.0049 | – | – | 42 | – | –
22 | CN[C@@H](C)C/C=C/c1cncc(OC2CN(C(=O)c3ccco3)C2)c1 | 0.0028 | – | – | 20 | – | –

Row | SMILES | Ki (Human α4β2; read-out: Human α4β2 Ki) [µM] | Ki (Rat Ganglion) [µM] | Ki (Human Ganglion) [µM] | Ki (Human Ganglion; read-out: Human Ganglion Ki) [µM] | Ki (Human α7 nAChR) [µM] | Ki (Human α4β2) [µM]
23 | CCCOC(=O)N1CC(Oc2cncc(/C=C/C[C@H](C)NC)c2)C1 | 0.0039 | – | 44 | – | – | –
24 | CN[C@@H](C)C/C=C/c1cncc(OC2CN(C(=O)OCCOC)C2)c1 | 0.0096 | – | 69 | – | – | –
25 | CN[C@@H](C)C/C=C/c1cnc(Cl)c(O[C@H]2CCN(C(=O)C(C)C)C2)c1 | 0.013 | 16 | 27 | – | 29 | –
26 | CN[C@@H](C)C/C=C/c1cncc(O[C@H]2CCN(C(=O)c3ccc(F)cc3F)C2)c1 | 0.029 | 80 | 3.3 | – | 47 | –
27 | CN[C@@H](C)C/C=C/c1cnc(Cl)c(O[C@H]2CCN(C(=O)c3ccc(F)cc3F)C2)c1 | 0.022 | – | – | – | 23 | –
28 | CN[C@@H](C)C/C=C/c1cncc(O[C@H]2CCN(C(=O)C(C)(C)C)C2)c1 | 0.0075 | 130 | 19 | – | 100 | –
29 | CN[C@@H](C)C/C=C/c1cncc(O[C@H]2CCN(C(=O)CC(C)(C)C)C2)c1 | – | 21 | 12 | – | 65 | 0.011
30 | CN[C@@H](C)C/C=C/c1cnc(Cl)c(O[C@H]2CCN(C(=O)CCC(F)(F)F)C2)c1 | – | 31 | 25 | – | 13 | 0.0028
31 | CN[C@@H](C)C/C=C/c1cncc(O[C@@H]2CCN(C(=O)CC(C)(C)C)C2)c1 | – | 35 | 43 | – | 260 | 0.032
32 | CN[C@@H](C)C/C=C/c1cncc(O[C@@H]2CCN(C(=O)CC3CCCC3)C2)c1 | 0.011 | 170 | 5.8 | – | 53 | –
33 | CN[C@@H](C)C/C=C/c1cncc(O[C@@H]2CCN(C(=O)CCC(F)(F)F)C2)c1 | 0.0043 | 43 | 19 | – | 170 | –
34 | CN[C@@H](C)C/C=C/c1cncc(O[C@@H]2CCN(C(=O)c3ccc(F)cc3)C2)c1 | 0.0067 | 100 | 6.8 | – | 53 | –
35 | CN[C@@H](C)C/C=C/c1cnc(Cl)c(O[C@@H]2CCN(C(=O)C(C)C)C2)c1 | 0.0015 | – | – | – | 36 | –
36 | CN[C@@H](C)C/C=C/c1cnc(Cl)c(O[C@@H]2CCN(C(=O)c3ccc(F)cc3F)C2)c1 | 0.0038 | 22 | 6.6 | – | 22 | –
37 | CN[C@@H](C)C/C=C/c1cnc(Cl)c(O[C@@H]2CCN(C(=O)C(C)(C)C)C2)c1 | 0.0087 | 1.1 | 26 | – | 34 | –
38 | CN[C@@H](C)C/C=C/c1cnc(Cl)c(O[C@@H]2CCN(C(=O)C3CCC3)C2)c1 | 0.0015 | – | – | – | 45 | –
39 | CN[C@@H](C)C/C=C/c1cnc(Cl)c(O[C@@H]2CCN(C(=O)C3CCCC3)C2)c1 | 0.0029 | – | – | – | 6.1 | –
40 | CN[C@@H](C)C/C=C/c1cnc(Cl)c(O[C@@H]2CCN(C(=O)CC(C)(C)C)C2)c1 | 0.016 | – | – | – | 6.5 | –
41 | CN[C@@H](C)C/C=C/c1cnc(Cl)c(O[C@@H]2CCN(C(=O)CC(F)(F)F)C2)c1 | 0.0012 | 8.5 | 18 | – | 300 | –
42 | CN[C@@H](C)C/C=C/c1cnc(Cl)c(O[C@@H]2CCN(C(=O)CC3CCCC3)C2)c1 | 0.0075 | – | – | – | 30 | –
43 | CN[C@@H](C)C/C=C/c1cncc(O[C@H]2CCN(C(=O)C(C)C)C2)c1 | 0.0061 | 5.7 | 20 | – | 36 | –
44 | CN[C@@H](C)C/C=C/c1cnc(Cl)c(O[C@@H]2CCN(C(=O)c3ccc(F)cc3)C2)c1 | 0.0033 | 3.7 | 2 | – | 61 | –
